Common to all, as to assay: growth of human tumour cells (NCI), 48 h
Test [1] concerns COLO 205 colon.
In test [2] the test system is MALME-3M melanoma.
In test [3] the test system is NCI/ADR-RES ovarian.
The test system of test [4] is SF-295 CNS.
Test [5] concerns MDA-N.
In test [6] the test system is IGROV1 ovarian.
For test [7], the system named is HOP-92 NSCLC.
For test [8], the system named is K-562 leukemia.
The subject of test [9] is NCI-H23 lung.
The test system of test [10] is MOLT-4 leukemia.
Test [11] concerns NCI-H460 lung.
Test [12] relates to HOP-62 NSCLC.
Test [13] has as its system CAKI-1 renal.
Test [14] deals with TK-10 renal.
The subject of test [15] is T-47D breast.
Test [16] deals with MCF7 breast.
For test [17], the system named is SF-539 CNS.
In test [18] the test system is SNB-19 CNS.
Test [19] deals with SF-268 CNS.

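Tested at 5 concentrations; 48 h exposure; 96-well plates; endpoints linearly interpolated, else capped at highest concentration. TGI marks complete inhibition of growth.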 Some results are limits rather than exact numbers.

As to `COc1cccc(NC(=O)CC(=O)N2N=C(C)C(N=Nc3ccc(S(=O)(=O)CCOS(=O)(=O)O)cc3)C2=O)c1` (configuration not stated), the TGI was 31.5 µM in [1]; 23.2 µM in [2]; above 100 µM in [3]; 30.6 µM in test [4]; 14 µM in test [5]; 17.3 µM in test [6]. Besides, the TGI is 13.2 µM in test [7]; above 100 µM in [8]; 20.9 µM in test [9]; above 100 µM in [10]; 17.9 µM in test [11]; 26 µM in test [12]. The TGI in test [13] was 10.5 µM; in [14] it was 18.9 µM; in test [15], 24.2 µM; in test [16], 5.71 µM; in test [17] it was 28.3 µM; in test [18], 33.9 µM.
On to `CC(C)c1cccc(C(=O)NCCN(C)C)c1[N+](=O)[O-]`, for which the TGI in [1], in [2], in [3], in [4], in [5] and in [6] was above 100 µM in each case. Also, the TGI in test [8], in test [9], in test [10], in test [11], in test [12] and in test [19] was above 100 µM in each case. The TGI in [13], in [14], in [15], in test [16], in test [17] and in [18] was above 100 µM in each case.
`COc1ccc(NS(=O)c2ccccc2OC)cc1` (configuration not stated): the TGI in test [1] was 48.6 µM; in test [2], 41.1 µM; in [3] it was above 100 µM; in [4], above 100 µM; in test [5] it was above 100 µM; in [6] it was above 100 µM. Also, the TGI in [8] was above 100 µM; in test [9] it was above 100 µM; in test [10], above 100 µM; in [11], above 100 µM; in [12], above 100 µM; in [19] it was 39.6 µM. Besides, the TGI in test [13] was 68.6 µM; in test [14], above 100 µM; in test [15] it was 35.2 µM; in test [16], 67.3 µM; in test [17], 35.9 µM; in [18], above 100 µM.
For the compound `Cc1ccc(CC(Cc2ccc(C)cc2C(=O)O)C(=O)O)cc1` (configuration not stated), the TGI in test [1], in test [2], in test [3], in test [4], in [5] and in test [6] was above 100 µM throughout. Besides, the TGI in test [7], in test [9], in test [10], in [11], in test [12] and in test [19] was above 100 µM each time. For the same compound, the TGI in test [13], in test [14], in test [15], in test [16], in [17] and in test [18] was above 100 µM in each case.
Regarding `CN(C)CCc1ccnc2nc(-c3ccc4ccccc4c3)cn12`, the TGI in test [1] was above 100 µM; in test [2], above 100 µM; in test [3], 85.3 µM; in [4], above 100 µM; in [5], above 100 µM; in test [6], 81.8 µM. Besides, the TGI was above 100 µM in test [8]; 46.2 µM in test [9]; above 100 µM in test [10]; 34.1 µM in [11]; above 100 µM in [12]; 77.5 µM in test [19]. Further, the TGI in test [13] is above 100 µM; in test [14], 40.7 µM; in test [15] it was above 100 µM; in test [16], above 100 µM; in test [18], above 100 µM.
Consider `Cc1cc(=O)oc2c3c(ccc12)OC(c1ccc(Br)cc1)CC3=O` (configuration not stated), for which the TGI is 30.5 µM in [1]; 71.3 µM in test [2]; above 100 µM in [3]; 23.9 µM in test [4]; above 100 µM in [5]; 32.5 µM in test [6]. In addition, the TGI came to 19 µM in test [8]; 27.5 µM in test [9]; 4.91 µM in test [10]; 36.8 µM in test [11]; 21.8 µM in test [12]; 32.1 µM in [19]. Further, the TGI in test [13] worked out at 43.8 µM; in [14], 27.1 µM; in [15], 1.18 µM; in test [16] it was 12.7 µM; in test [17], 27.1 µM; in test [18], 20.5 µM.
With `C[N+](C)(C)CC(=O)N/N=C(/CC1OC(=O)c2ccccc21)c1ccccc1O` (configuration not stated), the TGI in test [1] is above 100 µM; in [2] it was above 100 µM; in [3], 55.4 µM; in test [4], above 100 µM; in [5], above 100 µM; in test [6], above 100 µM. Further, the TGI in test [7] is 87.6 µM; in test [9], 85.4 µM; in test [10], 42.4 µM; in test [11], 70.9 µM; in test [12] it was above 100 µM; in [19], above 100 µM. The TGI in test [13] is above 100 µM; in [14], above 100 µM; in test [15] it was above 100 µM; in test [16] it was above 100 µM; in [17] it was 62.3 µM; in test [18], above 100 µM.
With `Nc1nc(NCC2(CO)CCC2)cc(=O)[nH]1`, the TGI in test [1], in [2], in [3], in test [4], in test [5] and in test [6] was above 100 µM each time. Moreover, the TGI in [7], in test [8], in [9], in test [10], in [11] and in test [12] was above 100 µM throughout. The TGI in test [19], in test [13], in test [15], in test [16] and in [18] was above 100 µM in each case.
